Measured values taken from patent US9738612B2, “Methylacryloyl benzimidazolone derivative and anti-tumour use thereof” (SHANGHAI NATURE STANDARD R&D AND BIOTECH CO., LTD, priority 2014, dated 2017).

What was measured:
PC-3 = test: Sulforhodamine B proliferation; assay type: cell-based; conditions: Homo sapiens, PC-3, 72 h, 72 h, SRB, read-out: Inhibitory rate % (PC-3)
Procedure: (§1) At a certain density cells were seeded in 96-well plates, and adhered overnight. The medium was discarded after incubating cells with compounds to be tested for 72 h, then 100μL/well trichloroacetic acid (TCA) was added to fix cells at 4° C. for 2h. After that the fixing solution was discarded. Cells were gently washed 5 times with distilled water, dried at room temperature. Cells were stained with 4 mg/mL SRB staining solution (100 μL/well) at room temperature for 15min. The staining solution was discarded, and cells were washed five times with 1% acetic acid (HAC) and dried at room temperature. To the plate tris base buffer (10 mM) was added at 150 μL/well and placed at room temperature for 15min. The OD values were measured at 540 nm wavelength in a microplate reader. Inhibitory rate (%)=(OD valuecontrol wells−OD valuedrugs treated wells)/OD valuecontrol wells×100%.
(§2) The results were shown in Table 2, the working concentrations of MK2206 and compounds of FD series were 10 μM. As shown in this Table, PC-3 is a prostate cancer cell line purchased from Cell Resource Center of Shanghai Institutes for Biological Sciences, Chinese Academy of Sciences, A549 is a lung cancer cell line purchased from Cell Resource Center of Shanghai Institutes for Biological Sciences, Chinese Academy of Sciences, and SGC-7901 is a gastric cancer cell line purchased from Cell Resource Center of Shanghai Institutes for Biological Sciences, Chinese Academy of Sciences.

SGC-7901 = test: Sulforhodamine B proliferation; assay type: cell-based; conditions: Homo sapiens, SGC-7901, 72 h, SRB, read-out: Inhibitory rate % (SGC-7901)
Procedure: as §1, §2

A549 = test: Sulforhodamine B proliferation; assay type: cell-based; conditions: Homo sapiens, A549, 72 h, SRB, read-out: Inhibitory rate % (A549)
Procedure: as §1, §2

PKA(h) = biological target: T1, PKA(h) (Homo sapiens, UniProt P17612); test: Tumor-associated kinase inhibition test; assay type: biochemical; conditions: read-out: Inhibitory rate (%)
T1 construct: purchased Eurofins Pharma Discovery Services UK Limited
Description: (§3) Eurofins Pharma Discovery Services UK Limited completed and reported this experiment.

PKCμ(h) = biological target: T2, PKCμ(h) (Homo sapiens, UniProt Q15139); test: Tumor-associated kinase inhibition test; assay type: biochemical; conditions: read-out: Inhibitory rate (%)
T2 construct: purchased Eurofins Pharma Discovery Services UK Limited
Description: as §3

PI3Kinase(p110α/p65α)(h) = biological target: T3, PI3Kinase(p110α/p65α)(h) (Homo sapiens, UniProt P42336); test: Tumor-associated kinase inhibition test; assay type: biochemical; conditions: read-out: Inhibitory rate (%)
T3 construct: purchased Eurofins Pharma Discovery Services UK Limited (contract assay)
Description: as §3

PI3Kinase(p120γ)(h) = biological target: T4, PI3Kinase(p120γ)(h) (Homo sapiens, UniProt P48736); test: Tumor-associated kinase inhibition test; assay type: biochemical; conditions: read-out: Inhibitory rate (%)
T4 construct: purchased Eurofins Pharma Discovery Services UK Limited (contract assay)
Description: as §3

PRAK(h) = biological target: T5, PRAK(h) (Homo sapiens, UniProt Q8IW41); test: Tumor-associated kinase inhibition test; assay type: biochemical; conditions: read-out: Inhibitory rate (%)
T5 construct: purchased Eurofins Pharma Discovery Services UK Limited
Description: as §3

PKCα(h) = biological target: T6, PKCα(h) (Homo sapiens, UniProt P17252); test: Tumor-associated kinase inhibition test; assay type: biochemical; conditions: read-out: Inhibitory rate (%)
T6 construct: purchased Eurofins Pharma Discovery Services UK Limited
Description: as §3

T4 sequence (P48736 whole entry): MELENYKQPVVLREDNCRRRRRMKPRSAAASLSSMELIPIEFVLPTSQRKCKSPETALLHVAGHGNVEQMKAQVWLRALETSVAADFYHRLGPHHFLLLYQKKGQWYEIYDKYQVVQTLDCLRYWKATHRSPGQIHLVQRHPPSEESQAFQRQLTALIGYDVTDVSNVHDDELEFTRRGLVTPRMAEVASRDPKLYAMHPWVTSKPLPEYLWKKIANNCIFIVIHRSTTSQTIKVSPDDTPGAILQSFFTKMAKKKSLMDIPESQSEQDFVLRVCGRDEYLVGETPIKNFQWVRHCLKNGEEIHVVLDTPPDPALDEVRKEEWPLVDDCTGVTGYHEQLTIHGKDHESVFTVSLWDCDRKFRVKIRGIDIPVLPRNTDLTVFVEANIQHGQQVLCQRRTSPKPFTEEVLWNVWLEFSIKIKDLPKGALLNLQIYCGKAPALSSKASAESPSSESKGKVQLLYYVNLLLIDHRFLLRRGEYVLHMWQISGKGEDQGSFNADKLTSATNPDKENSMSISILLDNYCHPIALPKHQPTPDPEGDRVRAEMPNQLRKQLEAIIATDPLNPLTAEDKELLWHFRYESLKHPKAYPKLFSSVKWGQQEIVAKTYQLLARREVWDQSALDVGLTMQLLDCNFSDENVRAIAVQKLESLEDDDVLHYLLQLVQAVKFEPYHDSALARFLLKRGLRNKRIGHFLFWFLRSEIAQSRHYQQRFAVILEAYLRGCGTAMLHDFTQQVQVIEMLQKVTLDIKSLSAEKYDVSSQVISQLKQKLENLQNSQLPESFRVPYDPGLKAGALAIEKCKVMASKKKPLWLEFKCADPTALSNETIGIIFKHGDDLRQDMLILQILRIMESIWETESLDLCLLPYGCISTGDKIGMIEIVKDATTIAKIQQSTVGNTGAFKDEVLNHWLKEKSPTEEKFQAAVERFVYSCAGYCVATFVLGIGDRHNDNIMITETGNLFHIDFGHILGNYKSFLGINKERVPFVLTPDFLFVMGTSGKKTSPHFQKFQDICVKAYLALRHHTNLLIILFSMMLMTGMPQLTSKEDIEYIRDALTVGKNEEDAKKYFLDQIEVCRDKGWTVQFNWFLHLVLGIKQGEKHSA
T2 sequence (Q15139 whole entry): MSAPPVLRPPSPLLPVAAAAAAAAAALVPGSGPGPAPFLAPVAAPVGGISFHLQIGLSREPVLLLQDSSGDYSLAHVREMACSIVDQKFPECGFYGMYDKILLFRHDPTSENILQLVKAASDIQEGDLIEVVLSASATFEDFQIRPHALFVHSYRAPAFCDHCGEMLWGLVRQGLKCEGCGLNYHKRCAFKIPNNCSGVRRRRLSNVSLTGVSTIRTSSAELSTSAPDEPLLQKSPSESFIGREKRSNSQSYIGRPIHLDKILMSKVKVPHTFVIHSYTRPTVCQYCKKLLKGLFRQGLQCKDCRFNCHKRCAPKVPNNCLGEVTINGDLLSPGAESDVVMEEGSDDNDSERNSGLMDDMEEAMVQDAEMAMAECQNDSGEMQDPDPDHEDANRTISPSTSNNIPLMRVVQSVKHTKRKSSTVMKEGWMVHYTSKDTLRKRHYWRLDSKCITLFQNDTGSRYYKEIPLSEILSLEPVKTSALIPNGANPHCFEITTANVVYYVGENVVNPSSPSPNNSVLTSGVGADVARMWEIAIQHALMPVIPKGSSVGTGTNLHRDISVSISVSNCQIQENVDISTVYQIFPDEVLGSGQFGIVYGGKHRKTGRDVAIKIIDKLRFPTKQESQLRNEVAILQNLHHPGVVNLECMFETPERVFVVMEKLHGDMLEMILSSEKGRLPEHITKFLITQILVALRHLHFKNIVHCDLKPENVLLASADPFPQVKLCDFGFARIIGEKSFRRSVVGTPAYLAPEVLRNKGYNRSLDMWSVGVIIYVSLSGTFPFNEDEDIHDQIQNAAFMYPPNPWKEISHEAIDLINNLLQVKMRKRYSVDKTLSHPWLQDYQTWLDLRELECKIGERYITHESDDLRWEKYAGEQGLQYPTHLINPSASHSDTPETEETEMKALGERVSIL
T5 sequence (Q8IW41 whole entry): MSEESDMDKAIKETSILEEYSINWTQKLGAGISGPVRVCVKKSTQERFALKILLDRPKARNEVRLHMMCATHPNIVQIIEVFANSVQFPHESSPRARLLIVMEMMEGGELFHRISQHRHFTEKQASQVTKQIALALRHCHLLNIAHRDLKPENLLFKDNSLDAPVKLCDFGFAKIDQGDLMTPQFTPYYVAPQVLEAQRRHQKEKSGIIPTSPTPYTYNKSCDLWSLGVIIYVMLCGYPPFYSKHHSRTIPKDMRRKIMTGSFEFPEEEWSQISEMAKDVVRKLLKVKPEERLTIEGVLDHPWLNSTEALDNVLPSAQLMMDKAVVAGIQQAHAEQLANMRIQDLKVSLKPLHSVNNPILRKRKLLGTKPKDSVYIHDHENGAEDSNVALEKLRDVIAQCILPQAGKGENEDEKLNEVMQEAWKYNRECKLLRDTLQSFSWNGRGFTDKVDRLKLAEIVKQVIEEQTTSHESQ
T3 sequence (P42336 whole entry): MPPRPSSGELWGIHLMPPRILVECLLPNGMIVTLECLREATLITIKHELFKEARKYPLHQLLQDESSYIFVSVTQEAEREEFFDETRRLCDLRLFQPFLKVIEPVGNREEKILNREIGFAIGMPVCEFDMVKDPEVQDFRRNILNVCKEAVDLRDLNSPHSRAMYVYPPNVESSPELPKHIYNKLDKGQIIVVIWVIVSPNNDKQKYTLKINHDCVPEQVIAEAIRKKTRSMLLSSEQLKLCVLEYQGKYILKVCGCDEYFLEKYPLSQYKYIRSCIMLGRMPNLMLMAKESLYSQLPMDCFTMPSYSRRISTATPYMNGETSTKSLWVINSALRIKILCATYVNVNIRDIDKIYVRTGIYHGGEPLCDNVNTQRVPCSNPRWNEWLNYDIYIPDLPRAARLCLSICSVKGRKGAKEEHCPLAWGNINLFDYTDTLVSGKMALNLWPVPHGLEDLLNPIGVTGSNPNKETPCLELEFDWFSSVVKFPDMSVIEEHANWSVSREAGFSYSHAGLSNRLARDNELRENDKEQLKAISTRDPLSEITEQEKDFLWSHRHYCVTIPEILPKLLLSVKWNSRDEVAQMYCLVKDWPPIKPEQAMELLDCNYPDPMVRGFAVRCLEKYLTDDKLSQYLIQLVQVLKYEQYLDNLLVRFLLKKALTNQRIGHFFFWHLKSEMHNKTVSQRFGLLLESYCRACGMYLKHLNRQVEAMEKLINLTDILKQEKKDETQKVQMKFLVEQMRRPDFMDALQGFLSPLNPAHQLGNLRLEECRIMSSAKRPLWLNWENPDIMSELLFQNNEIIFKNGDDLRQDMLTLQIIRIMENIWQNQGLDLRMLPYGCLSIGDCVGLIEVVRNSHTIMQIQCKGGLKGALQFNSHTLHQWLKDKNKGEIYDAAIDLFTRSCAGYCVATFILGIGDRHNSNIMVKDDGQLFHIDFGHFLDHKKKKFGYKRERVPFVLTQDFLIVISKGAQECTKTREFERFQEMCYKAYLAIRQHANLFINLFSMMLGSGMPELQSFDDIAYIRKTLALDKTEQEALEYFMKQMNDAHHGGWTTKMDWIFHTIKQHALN

- inhibition at 10 µM (PKA(h)): -5%
- inhibition at 10 µM (PKCμ(h)): 6%
- inhibition at 10 µM (PI3Kinase(p110α/p65α)(h)): 3%
- inhibition at 10 µM (PI3Kinase(p120γ)(h)): 2%
- inhibition at 10 µM (PRAK(h)): 10%
- inhibition at 10 µM (PKCα(h)): 24%
SMILES: C=C(C)n1c(=O)n(C(C)=O)c2ncc(Br)cc21 [FD162]
- inhibition at 10 µM (PC-3): 62.4%
- inhibition at 10 µM (SGC-7901): 70.2%
- inhibition at 10 µM (A549): 12.1%
